# Assays:
# Type in all cases: functional
# [1] = tested on: Mus musculus; experiment: Antiinflammatory activity against Swiss mouse assessed as inhibition of arachidonic acid-induced edema at 0.5 mg/ear applied 30 mins before arachidonic acid challenge measured after 1 hr
# [2] = tested on: Mus musculus; experiment: Antiinflammatory activity against Swiss mouse assessed as inhibition of TPA-induced edema at 0.5 mg/ear applied simultaneously with TPA measured after 4 hrs
# [3] = species: Mus musculus; experiment: Antiinflammatory activity against Swiss mouse chronic dermatitis model assessed as inhibition of TPA-induced tissue myeloperoxidase activity at 0.5 mg/ear applied twice daily for 4 days measured after 6 hrs
# [4] = tested on: Mus musculus; experiment: Antiinflammatory activity against Swiss mouse chronic dermatitis model assessed as inhibition of TPA-induced edema at 0.5 mg/ear applied twice daily for 4 days measured after 6 hrs
# [5] = tested on: Mus musculus; experiment: Antiinflammatory activity against Swiss mouse assessed as inhibition of carrageenan-induced paw volume at 100 mg/kg, po administered 1 hr prior to carrageenan challenge measured after 5 hrs
# [6] = tested on: Mus musculus; experiment: Antiinflammatory activity against Swiss mouse assessed as inhibition of carrageenan-induced paw volume at 100 mg/kg, po administered 1 hr prior to carrageenan challenge measured after 1 hr
# [7] = tested on: Mus musculus; experiment: Antiinflammatory activity against Swiss mouse assessed as inhibition of carrageenan-induced paw volume at 100 mg/kg, po administered 1 hr prior to carrageenan challenge measured after 3 hrs
Compound,inhibition (INH) [1],inhibition (INH) [2],inhibition (INH) [3],inhibition (INH) [4],inhibition in vivo at 100 mg/kg [5],inhibition in vivo at 100 mg/kg [6],inhibition in vivo at 100 mg/kg [7]
COc1cc(O)c2c(c1)O[C@H](c1ccc(O)cc1)[C@@H](O)C2=O,3%,78%,,,,,
COc1cc(O)c2c(c1)O[C@H](c1ccc(O)c(O)c1)[C@@H](OC(C)=O)C2=O,-1%,83%,,,,,
C[C@@H]1C[C@H]2[C@@H]3CCC4=CC(=O)C=C[C@]4(C)[C@@]3(F)[C@@H](O)C[C@]2(C)[C@@]1(O)C(=O)CO [DEXAMETHASONE],,,92%,92%,,,
C=C(C(=O)O)[C@@H]1CC[C@@]2(C)CCC[C@@](C)(O)[C@@H]2C1 [ILICIC ACID],18%,72%,82%,78%,30%,5%,32%
COc1ccc2c(c1)c(CC(=O)O)c(C)n2C(=O)c1ccc(Cl)cc1 [INDOMETHACIN],,91%,,,,,
CC/C=C\C/C=C\C/C=C\CCCCCCCC(=O)OC(COC(=O)CCCCCCCCCCCCCCC)CO[C@H]1O[C@@H](CO[C@H]2O[C@H](CO)[C@H](O)[C@H](O)[C@H]2O)[C@@H](O)[C@@H](O)[C@@H]1O (some centres undefined) [INUGALACTOLIPID A],5%,48%,84%,97%,5%,-16%,10%
C=C1C(=O)O[C@H]2CC(=C)[C@H]3CC[C@@](C)(O)[C@@H]3C[C@H]12 [INUVISCOLIDE],-16%,90%,,,,,
O=C1CCN(c2ccccc2)N1 [PHENIDONE],51%,,,,,,
CCCCC1C(=O)N(c2ccccc2)N(c2ccccc2)C1=O [PHENYLBUTAZONE],,,,,43%,54%,58%
COc1cc(O)c2c(=O)c(O)c(-c3ccc(O)cc3)oc2c1 [RHAMNOCITRIN],6%,78%,,,,,

# From ChEMBL document CHEMBL1141827, “A glycosyl analogue of diacylglycerol and other antiinflammatory constituents from Inula viscosa” (1999)
